System: S. pombe yeast cells
Experiment: Respirometric assessment of viability of S. pombe yeast cells treated with toxicant (oxygen uptake, phosphorescent oxygen probe)
Format: cell-based
Settings: S. pombe cells incubated with different concentrations of toxicant, aliquots at different time intervals; FIG. 5
Procedure: A solid-state oxygen probe comprising a thin film polymer coating of the phosphorescent dye platinum(II)-tetrakis(pentafluorophenyl)porphine (PtTFPP) and polycarbonate was used with the device 1 shown in FIG. 1. One milligram of PtTFPP is dissolved in 0.01% (w/v) solution of polycarbonate (M.ca. 60 000) in chloroform. One microlitre aliquotes of this solution were dispensed to the microwells and allowed to air dry for 10 minutes to produce thin film phosphorescent oxygen-sensitive coating inside the microwells.
S. pombe yeast cells were incubated with different concentrations of cadmium nitrate toxicant. Two μl aliquots were taken from each sample at different time intervals, and placed in the wells of microwell chambers coated with a PtTFPP-polycarbonate solid-state oxygen probe. The respiration profiles of samples were monitored as described in Example 1 above, together with a control sample containing the same concentration of test cells, but without the presence of a toxicant. The levels of oxygen uptake by each sample is evaluated on the basis of time profiles of the phosphorescent signal (initial slopes), compared to those obtained in the control sample. […] This could be extended to compare cells growing in the presence of necessary growth factors, undergoing survival factor deprivation, or undergoing apoptosis.

**Q.** `O=[N+]([O-])[O-].O=[N+]([O-])[O-].[Cd+2]` [cadmium nitrate] was tested. Which “oxygen uptake / initial slope of phosphorescent signal time profile, compared to control sample (cell viability)” value did it give?
**A.** decrease in the initial slope and oxygen uptake with respect to control sample
